According to patent US9504700B2, “Methods and compositions for stimulation and enhancement of regeneration of tissues” (MOUNT DESERT ISLAND BIOLOGICAL LABORATORY, priority 2012, dated 2016):

Assays:
insulin receptor = conditions: mouse, with administration of insulin; cited from earlier work
[1] = test system: caudal fin blastema cells; assay: Proliferation of caudal fin blastema cells (H3P staining); format: in vivo, zebrafish; conditions: 4 dpa, vs control
Description: The zebrafish caudal fins from the control and MSI-1436 treated animals were extracted at four days post-amputation (4 dpa) and stained with an antibody directed against phosphorylated histone 3 (H3P) as a marker of cell proliferation. […] (Arrowheads highlight subset of H3P positive cells; * corresponds to Student's ttest p-value <0.001; error bars correspond to SEM; n corresponds to 6 fish per group).

zebrafish adult hearts [2] = assay: Heart regeneration after partial ventricular resection (cardiomyocyte proliferation index, Mef2+PCNA+); format: in vivo; conditions: 3 dpa; 0.125 mg/kg daily ip
Protocol: The pharmacological effect of aminosterol MSI-1436 administration on the regeneration of zebrafish adult hearts was tested using the same experimental paradigm described under the first study of example 1.
Adult zebrafish of 6-8 months old, were subjected to partial ventricular resection procedures followed by daily treatments with intraperitoneal microinjections of PBS (control) or squalamine or MSI-1436 at concentrations of 0.125 mg/kg. The ventricular resection procedures removed ˜20% of the ventricular apex of each heart and challenged each animal to regenerate new heart tissue. At three days post-amputation (3 dpa), hearts were extracted, fixed, cyrosectioned and stained with antibodies directed against Mef2 and PCNA. Cardiomyocyte proliferation indices were determined for each group by representing Mef2+PCNA+cells as a percent of total Mef2+cells within each heart. (*=Student's ttest p-value <0.05; error bars=SEM; n=4 per group).

[3] = test system: Normal, green monkey kidney cells; assay: Cellular proliferation of normal green monkey kidney cells; format: cell-based; conditions: 0.1 μg/ml or 1.0 μg/ml, two weeks
Protocol: This study was conducted to determine the effects of MSI-1436 on the cellular proliferation of normal, uninjured mammalian cells.
Normal, green monkey kidney cells were cultured with either control media of PBS or supplemented with 0.1 μg/ml or 1.0 μg/ml of MSI-1436. Growth media with and without MSI-1436 were replaced daily and total cell numbers were determined for each group over a period of 2-weeks.

hepatoma cells = conditions: cited from earlier work
PTP1B = molecular target: T1, PTP1B (Homo sapiens, UniProt P18031); conditions: in vitro enzyme assay; cited from earlier work
T1 sequence (P18031 1-435): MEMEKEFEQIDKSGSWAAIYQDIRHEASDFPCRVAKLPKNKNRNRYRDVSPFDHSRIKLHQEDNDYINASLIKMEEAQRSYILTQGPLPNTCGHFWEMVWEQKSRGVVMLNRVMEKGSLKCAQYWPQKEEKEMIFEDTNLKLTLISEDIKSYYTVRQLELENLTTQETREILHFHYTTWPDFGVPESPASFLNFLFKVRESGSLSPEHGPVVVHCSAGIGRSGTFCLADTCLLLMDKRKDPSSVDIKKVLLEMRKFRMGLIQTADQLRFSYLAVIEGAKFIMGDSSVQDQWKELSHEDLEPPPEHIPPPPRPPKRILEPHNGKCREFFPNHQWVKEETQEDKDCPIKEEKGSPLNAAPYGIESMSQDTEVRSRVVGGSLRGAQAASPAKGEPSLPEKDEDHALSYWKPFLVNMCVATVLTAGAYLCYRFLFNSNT

HIV = conditions: tissue culture; cited from earlier work
[4] = test system: caudal fin of adult zebrafish; assay: Caudal fin regeneration after amputation in adult zebrafish; format: in vivo
Protocol: The purpose of this example was to evaluate the pharmacological effect of aminosterol MSI-1436 administration on the regeneration of the caudal or tail fins of zebrafish. Wildtype adult zebrafish were treated with MSI-1436 or squalamine or a control of phosphate buffered saline solution (PBS) over a four-day period via daily intraperitoneal microinjections. The adult zebrafish were bred and housed in the Yin laboratory at Mount Desert Island Biological Laboratory. The microinjections of PBS, squalamine and MSI-1436 were performed for the duration of the experiments at concentrations of 0.125 mg/kg which corresponds to 50 ng/300 mg body weight which translates to 5-200 mg per dose in humans. On average, a 5 ul volume of 10 ug/ml solution was delivered into each animal with a custom made 10 ul glass syringe (Hamilton part #80008).
The tail or caudal fins were amputated following the second day of intraperitoneal microinjections. These amputations were accomplished using a razor blade to remove approximately 50% of the caudal fins each in a manner perpendicular to the direction of bony ray growth. The zebrafish were maintained at standard conditions of 28° C. at all times during the experiments. At 4 days post-amputation (4 dpa) through 14 dpa, caudal fins were imaged with an Olympus MVX10 stereomicroscope and the length of regenerated tissue from the amputation plane was quantified using Adobe Photoshop.
(The dashed lines correspond to the amputation planes; the scale bar is 1 mm; * corresponds to the Student's ttest p-value <0.01; error bars correspond to SEM; n corresponds to 8-10 fish per group.) MSI-1436 stimulated appendage regeneration 2-fold four days after amputation (4 dpa), as shown in FIG. 2. […] In other words, the rate of regeneration was […] for those animals receiving MSI-1436 than for those receiving either phosphate buffered saline (PBS) or squalamine. Each of the experiments was conducted with at least 6 animals per group. […] FIG. 1 reflects the results of all four experiments.
Wildtype adult zebrafish were subjected to caudal fin amputation and treated daily with either control PBS or MSI-1436 as described above in the context of FIG. 1 for 14 consecutive days during regeneration. (Arrowhead=amputation plane; n=4-6 per group).

zebrafish adult hearts [5] = assay: Rescue of let-7 miRNA depletion defect in heart regeneration (cardiomyocyte proliferation index); format: in vivo; conditions: 3 dpa
Description: To determine if MSI-1436 is capable of rescuing defects in heart regeneration, we microinjected antisense oligonucleotides to bind and remove activity of the let-7 family of small RNAs (miRNAs). Wildtype adult zebrafish were injured via the partial ventricular resection procedure described above and treated with either 1) control of PBS, 2) MSI-1436, 3) miRNA depletion, and 4) miRNA depletion and MSI-1436. At three days post-amputation (3 dpa), hearts were extracted and stained to detect Mef2+PCNA+cells. Cardiomyocyte proliferation indices were determined as a percent of Mef2+PCNA+cells within the total cardiomyocyte population in each heart. (*=Student's ttest p-value <0.05; error bars=SEM; n=8-12 hearts per group) The inclusion of MSI-1436 enhanced cardiomyocyte proliferation indices by 2-fold when compared to control hearts. Depletion of the let-7 family of miRNAs with antisense nucleotides inhibited cardiomyocyte proliferation index by approximately 45%.

For `CC(C)[C@@H](CC[C@@H](C)[C@H]1CC[C@H]2[C@@H]3[C@H](O)C[C@H]4C[C@@H](NCCCNCCCCNCCCN)CC[C@]4(C)[C@H]3CC[C@]12C)OS(=O)(=O)O` [MSI-1436], the “recovery of phosphorylated insulin receptor from the hypothalamus” value (insulin receptor) is given as “increase in the recovery of phosphorylated insulin receptor from the hypothalamus”, the “increase in cellular proliferation of blastema cells (H3P positive)” value [1] is given as 2 fold and the “greater rate of heart regeneration, as quantified by cardiomyocyte proliferation indices, vs PBS or squalamine” value (zebrafish adult hearts [2]) is given as 2-3 fold. For the same compound, the cellular proliferation plots ([3]; media replaced daily) was “normal growth curves”, the overgrowth or hyperproliferation [3] was “did not promote overgrowth or hyperproliferation” and the “phosphorylation of the insulin receptor” value (hepatoma cells) was “increase the level of phosphorylation of the insulin receptor”. The PTP1B activity (PTP1B) was “inhibit the activity of PTP1B”, the “antiviral activity against HIV” value (HIV) was “exhibits antiviral activity against HIV” and the “anatomy of restored tail” value ([4]; 0.125 mg/kg daily ip) was “anatomically normal”. For the same compound, the “rate of regeneration greater than PBS or squalamine” value ([4]; 0.125 mg/kg daily ip) was 200%, the “overgrowth of regenerated tissue” value ([4]; 14 consecutive days of daily microinjections) was “did not display any overgrowth” and the “amount of regenerated tissue vs control” value ([4]; 14 days post-amputation (14 dpa)) was “same amount of regenerated tissue”. The “stimulation of appendage regeneration” value ([4]; four days after amputation (4 dpa), 0.125 mg/kg daily ip) was 2 fold, the “enhancement of cardiomyocyte proliferation indices vs control hearts” value (zebrafish adult hearts [5]) was 2 fold and the “cardiomyocyte proliferation index in animals with miRNA depletion” value (zebrafish adult hearts [5]; miRNA depletion and MSI-1436) was “restored to wildtype control levels”.
